Measured values from patent US12448369B2 (Edgewise Therapeutics, Inc., priority 2023, dated 2025).

What was measured:
[1] = test system: Rabbit Psoas myofibrils (skeletal myosin ATPase); experiment: Myofibril ATPase assay, rabbit psoas (skeletal) myofibrils; type: biochemical; conditions: rabbit psoas myofibrils
In short: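 Rabbit psoas skeletal myofibrils in PIPES/CaCl2/EGTA pCa buffer, pH 7.0. ATPase rate followed by PK-LDH-coupled NADH loss at 340 nm, read every 1.5–2 min for 75 min. Slopes normalized to vehicle (100%) and fitted to a 4-parameter logistic; values are Y75 (25% inhibition) or Y125 (25% activation) concentrations.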

[2] = molecular target: T1, Porcine ventricle myofibrils (ventricular myosin ATPase) (Sus scrofa, UniProt P79293); experiment: Myofibril ATPase assay, porcine ventricle myofibrils; type: biochemical, porcine (Yucatan minipigs); conditions: porcine ventricle myofibrils
T1 construct: Myofibrils from porcine cardiac muscle was isolated from the left ventricle of Yucatan minipigs; tissue Exemplar Genetics; host or cells: left ventricle of Yucatan minipigs, myofibrils prepared in house
In short: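 ATPase activity of porcine left-ventricular myofibrils is tracked as the slope of NADH loss at 340 nm through a PK/LDH couple. Values are the concentrations that bring activity to 75% (inhibitors) or 125% (activators) of vehicle.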

[3] = test system: Porcine atria myofibrils (atrial myosin ATPase); experiment: Myofibril ATPase assay, porcine atria myofibrils; type: biochemical; conditions: porcine atria myofibrils
In short: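 Coupled PK-LDH reaction links ADP from myosin ATPase to NADH loss, read at 340 nm every 1.5-2 min for 75 min. Slopes (mAU/min) normalized to vehicle-only wells (100%) and fit to a 4-parameter logistic; Y75 is the concentration cutting activity by 25%, Y125 is reported for activators.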

[4] = Y75 value (75% activity relative to no compound)
[5] = ‡ Y125 value, not a Y75 value (125% activity relative to no compound)

T1 sequence (P79293 whole entry): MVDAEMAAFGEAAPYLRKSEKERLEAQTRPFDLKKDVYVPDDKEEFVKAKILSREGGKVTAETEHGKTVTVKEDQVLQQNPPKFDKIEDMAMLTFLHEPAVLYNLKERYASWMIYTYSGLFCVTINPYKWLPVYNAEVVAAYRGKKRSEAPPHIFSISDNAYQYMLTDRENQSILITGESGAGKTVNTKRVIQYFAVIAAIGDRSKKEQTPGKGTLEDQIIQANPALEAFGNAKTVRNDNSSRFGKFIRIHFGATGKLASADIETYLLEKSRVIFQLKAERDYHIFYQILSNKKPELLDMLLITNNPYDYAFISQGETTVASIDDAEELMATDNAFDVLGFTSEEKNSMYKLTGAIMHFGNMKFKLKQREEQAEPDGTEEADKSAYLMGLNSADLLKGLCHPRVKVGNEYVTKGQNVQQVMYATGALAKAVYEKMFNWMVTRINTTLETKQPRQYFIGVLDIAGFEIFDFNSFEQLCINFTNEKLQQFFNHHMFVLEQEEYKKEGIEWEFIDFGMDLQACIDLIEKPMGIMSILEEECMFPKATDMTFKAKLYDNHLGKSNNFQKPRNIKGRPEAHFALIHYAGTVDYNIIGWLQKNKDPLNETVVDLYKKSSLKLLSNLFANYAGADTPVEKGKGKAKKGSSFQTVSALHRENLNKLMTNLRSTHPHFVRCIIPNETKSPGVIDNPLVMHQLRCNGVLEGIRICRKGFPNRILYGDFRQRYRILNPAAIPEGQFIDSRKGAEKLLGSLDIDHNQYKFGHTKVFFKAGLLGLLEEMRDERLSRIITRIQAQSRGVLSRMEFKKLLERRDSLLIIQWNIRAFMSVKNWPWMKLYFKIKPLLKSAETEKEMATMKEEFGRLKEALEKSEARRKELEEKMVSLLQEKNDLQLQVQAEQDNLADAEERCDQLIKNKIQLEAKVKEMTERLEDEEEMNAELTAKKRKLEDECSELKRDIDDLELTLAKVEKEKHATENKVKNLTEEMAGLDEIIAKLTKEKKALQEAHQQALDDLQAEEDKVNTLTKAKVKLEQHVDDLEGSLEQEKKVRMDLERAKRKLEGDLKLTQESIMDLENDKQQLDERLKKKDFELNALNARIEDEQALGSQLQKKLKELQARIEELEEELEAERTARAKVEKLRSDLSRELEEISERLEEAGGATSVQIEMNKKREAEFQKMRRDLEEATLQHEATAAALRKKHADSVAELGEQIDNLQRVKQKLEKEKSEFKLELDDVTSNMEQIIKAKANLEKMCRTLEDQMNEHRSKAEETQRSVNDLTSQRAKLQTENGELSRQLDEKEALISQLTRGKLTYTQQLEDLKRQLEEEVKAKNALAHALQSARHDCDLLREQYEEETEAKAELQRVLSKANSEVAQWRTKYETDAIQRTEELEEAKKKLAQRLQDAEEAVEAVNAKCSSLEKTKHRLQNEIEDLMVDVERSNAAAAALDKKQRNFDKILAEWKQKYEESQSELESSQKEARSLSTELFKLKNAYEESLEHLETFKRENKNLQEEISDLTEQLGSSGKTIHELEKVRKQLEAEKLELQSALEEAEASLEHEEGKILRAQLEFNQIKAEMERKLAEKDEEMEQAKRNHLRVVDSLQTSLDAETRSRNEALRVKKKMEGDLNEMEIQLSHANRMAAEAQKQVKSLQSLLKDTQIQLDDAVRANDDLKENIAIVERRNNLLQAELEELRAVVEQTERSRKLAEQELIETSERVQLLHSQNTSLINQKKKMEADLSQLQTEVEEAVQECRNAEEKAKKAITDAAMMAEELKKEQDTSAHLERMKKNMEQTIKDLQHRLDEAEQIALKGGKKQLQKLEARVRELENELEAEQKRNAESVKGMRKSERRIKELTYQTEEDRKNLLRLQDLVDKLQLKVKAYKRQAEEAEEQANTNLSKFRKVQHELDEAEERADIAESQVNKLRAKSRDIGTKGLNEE

SMILES	Skeletal EC25 ([1]; Y75 value) [µM]	Ventricular EC25 ([2]; Y75 value) [µM]	Atrial EC25 [3, 4] [µM]	Skeletal EC25 ([1]; Y75 value (no ‡ mark)) [µM]	Ventricular EC25 ([2]; Y75 value (no ‡ mark)) [µM]	Atrial EC25 ([3]; Y75 value (no ‡ mark)) [µM]	other results
CCOc1nccc2[nH]c(=O)c(CC(=O)N[C@@H](C)c3ccc(F)cc3F)c(C(F)(F)F)c12 [compound 422]	0.03	100.00	100.00	–	–	–	–
Cc1c(C2(C(=O)N[C@@H](C)c3cc(C#N)ccn3)CC2)c(=O)[nH]c2ccc(F)c(F)c12 (single isomer, unassigned) [compound 2540]	–	–	–	0.96	100.00	–	Atrial EC25 [3, 5]: 100.00‡ μM
Cc1c([C@H](C)C(=O)N[C@@H](C)c2ccc(F)cc2F)c(=O)[nH]c2ccc(C(F)(F)F)nc12 (single isomer, unassigned) [compound 369]	15.36	60.83	0.29	–	–	–	–
Cc1nccc2[nH]c(=O)c([C@H](C)C(=O)N[C@@H](C)c3ccc(F)cc3F)cc12 (single isomer, unassigned) [compound 442]	12.41	100.00	100.00	–	–	–	–
Cc1c(C(C)C(=O)N[C@@H](C)c2ccc(F)cc2F)c(=O)[nH]c2ccncc12 (stereo partly drawn) [compound 440]	2.78	100.00	34.65	–	–	–	–
Cc1c(C(F)(F)C(=O)N[C@@H](C)c2ncc(C#N)cc2F)c(=O)[nH]c2cccc(F)c12 (single isomer, unassigned) [compound 2533]	–	–	–	0.06	0.13	0.13	–
C[C@H](NC(=O)C1(c2cc3cc(F)ccc3[nH]c2=O)CC1)c1nccc(C#N)n1 (single isomer, unassigned) [compound 2508]	–	–	–	5.03	–	100.00	Ventricular EC25 [2, 5]: 70.50‡ μM
C[C@H](NC(=O)C(F)(F)c1cc2cc(F)ccc2[nH]c1=O)c1nccc(C#N)n1 (single isomer, unassigned) [compound 2560]	–	–	–	–	100.00	100.00	Skeletal EC25 [1, 5]: 61.98‡ μM
Cc1c(C(F)(F)C(=O)N[C@@H](C)c2ncc(C#N)cc2F)c(=O)[nH]c2cccc(C#N)c12 (single isomer, unassigned) [compound 2502]	–	–	–	0.03	0.20	0.09	–
C[C@H](NC(=O)Cc1cc2c(F)cccc2[nH]c1=O)c1ccc(F)cc1F [compound 131]	–	–	–	0.02	0.81	0.07	–
Cc1c([C@H](C)C(=O)N[C@@H](C)c2ccc(F)cc2F)c(=O)[nH]c2ccc(F)c(F)c12 (single isomer, unassigned) [compound 112]	–	–	–	0.03	0.31	0.06	–
Cc1c(C2(C(=O)N[C@@H](C)c3ncc(C#N)cc3F)CC2)c(=O)[nH]c2ccc(F)c(C#N)c12 (single isomer, unassigned) [compound 2524]	–	–	–	0.13	0.31	0.16	–
Cc1c(C2(C(=O)N[C@H](C)c3cccc(C#N)n3)CC2)c(=O)[nH]c2ccc(F)c(F)c12 (single isomer, unassigned) [compound 2547]	–	–	–	0.91	–	–	Ventricular EC25 [2, 5]: 58.38‡ μM; Atrial EC25 [3, 5]: 100.00‡ μM

Now from value to compound, other results behind:

Skeletal EC25 ([1]; Y75 value) [µM]	Ventricular EC25 ([2]; Y75 value) [µM]	Atrial EC25 [3, 4] [µM]	Skeletal EC25 ([1]; Y75 value (no ‡ mark)) [µM]	Ventricular EC25 ([2]; Y75 value (no ‡ mark)) [µM]	Atrial EC25 ([3]; Y75 value (no ‡ mark)) [µM]	SMILES	other results
0.20	1.47	1.49	–	–	–	Cc1nccc2[nH]c(=O)c(CC(=O)N[C@H](C)c3cnc(C#N)cn3)c(C)c12 [compound 486]	–
–	–	–	0.01	0.07	0.06	Cc1c(CC(=O)N[C@@H](C)c2ccc(C#N)cc2F)c(=O)[nH]c2ccc(F)c(C#N)c12 [compound 68]	–
0.06	1.80	0.43	–	–	–	Cc1c(CC(=O)N[C@@H](C)c2ccc(C#N)cn2)c(=O)[nH]c2ccnc(C#N)c12 [compound 158]	–
3.18	100.00	100.00	–	–	–	Cc1nccc2[nH]c(=O)c(CC(=O)N[C@H](C)c3ncc(F)cc3F)c(C)c12 (single isomer, unassigned) [compound 378]	–
3.4	78	76	–	–	–	Cc1nccc2[nH]c(=O)c(CC(=O)N[C@H]3CCc4cc(F)cc(F)c43)c(C)c12 [compound 501]	–
0.15	9.68	2.16	–	–	–	Cc1c(CC(=O)N[C@H](C)c2ccc(C#N)cc2F)c(=O)[nH]c2ccc(C(F)(F)F)nc12 (single isomer, unassigned) [compound 208]	–
0.02	0.18	0.08	–	–	–	Cc1nc(C#N)cnc1[C@H](C)NC(=O)Cc1c(C)c2nc(C(F)(F)F)ccc2[nH]c1=O (single isomer, unassigned) [compound 139]	–
9.72	26.99	4.39	–	–	–	Cc1ccc2[nH]c(=O)c(CC(=O)N[C@@H](C)c3ncc(C#N)cc3F)cc2n1 [compound 463]	–
1.83	51.73	10.74	–	–	–	Cc1c(CC(=O)N[C@@H](C)c2ccc(F)cc2F)c(=O)[nH]c2ccnc(N3CCOCC3)c12 [compound 345]	–
–	–	–	0.50	1.19	100.00	Cc1c(CC(=O)N[C@H](C)c2ccc(C#N)cn2)c(=O)[nH]c2ccc(F)c(C3CC3)c12 [compound 23]	–
–	–	–	0.30	0.95	0.81	Cc1nc(C#N)cnc1[C@H](C)NC(=O)Cc1cc2cc(F)c(F)cc2[nH]c1=O (single isomer, unassigned) [compound 6]	–
–	–	–	2.39	2.11	0.55	Cc1c(CC(=O)N[C@@H](C)c2ncc(C#N)cn2)c(=O)[nH]c2cccc(F)c12 (single isomer, unassigned) [compound 2042]	–
–	–	–	0.04	0.52	0.07	Cc1c(CC(=O)N[C@@H](C)c2cnc(C#N)nc2)c(=O)[nH]c2cc(F)c(F)cc12 (single isomer, unassigned) [compound 2075]	–
100.00	100.00	100.00	–	–	–	Cc1nccc2[nH]c(=O)c(CC(=O)N[C@@H](C)c3cccnc3O)c(C)c12 (single isomer, unassigned) [compound 307]	–
100.00	100.00	100.00	–	–	–	Cc1nccc2[nH]c(=O)c(CC(=O)N[C@@H](C)c3ccc(O)cc3)c(C)c12 (single isomer, unassigned) [compound 329]	–
100.00	100.00	100.00	–	–	–	Cc1nc([C@H](C)NC(=O)Cc2c(C)c3c(C)nccc3[nH]c2=O)ncc1C#N [compound 479]	–
–	–	–	24.12	100.00	100.00	C[C@@H](NC(=O)Cc1cc2ccc(F)cc2[nH]c1=O)c1ncc(C#N)cn1 (single isomer, unassigned) [compound 2033]	–
–	–	–	0.35	1.49	1.89	Cc1c(CC(=O)N[C@H](C)c2ccc(C#N)cn2)c(=O)[nH]c2cccc(C#N)c12 [compound 1076]	–
